Calls of active or inactive are those of the source.
Columns and labels:
Aspartyl aminopeptidase = Aspartyl aminopeptidase (Plasmodium falciparum 3D7, UniProt Q8I2J3)
Procathepsin L = Procathepsin L (Homo sapiens, UniProt P07711)
[1] = target: Lysosomal acid glucosylceramidase (Homo sapiens, UniProt P04062); test: Dose response cell-based high throughput screening assay to identify enhancers of beta-glucosidase activity. [Related pubchem assays: 784 ]; format: functional
[2] = target: Acyl-homoserine lactone acylase PvdQ (Pseudomonas aeruginosa (strain LESB58), UniProt Q9I194); test: PvdQ acylase enzyme activity blockers – biochemical, fluorescence, plate reader and imaging, cherry-picks, dose response (AID 493231)
[3] = target: Glucose-6-phosphate 1-dehydrogenase (Homo sapiens, UniProt P11413); test: inhibition of Homo sapiens G6PD, dose series – biochemical, fluorescence, selectivity assay for P. falciparum G6PD inhibitor project, dose response (AID 504792); format: functional
[4] = target: Cystic fibrosis transmembrane conductance regulator/Golgi-associated PDZ and coiled-coil motif-containing protein (Homo sapiens, UniProt P13569+Q9HD26); test: potency against CAL PDZ-peptide interaction – biochemical, fluorescence polarization, Cerulean-tagged CAL PDZ, cherry-picks, dose response (AID 504773)
Nonstructural protein 1 = Nonstructural protein 1 (Influenza A virus, UniProt Q194T2); format: functional, Influenza A virus (A/California/07/2009(H1N1))
[5] = target: Mitochondrial peptide methionine sulfoxide reductase (Bos taurus, UniProt P54149); test: Absorbance-based biochemical high throughput dose response assay for activators of Methionine sulfoxide reductase A (MsrA).; format: functional
[6] = viability loss in HeLa cells – cytotoxicity control for MgcRacGAP inhibitor project, dose response (AID 624300); format: functional
[7] = target: T1, Rac GTPase-activating protein 1 (Homo sapiens, UniProt Q9H0H5); test: blockers of MgcRacGAP-driven Rac1 GTP hydrolysis – biochemical, ADP Hunter fluorescence, primary and confirmatory, confirmation (AID 624330); format: functional
T1 sequence (Q9H0H5 whole entry): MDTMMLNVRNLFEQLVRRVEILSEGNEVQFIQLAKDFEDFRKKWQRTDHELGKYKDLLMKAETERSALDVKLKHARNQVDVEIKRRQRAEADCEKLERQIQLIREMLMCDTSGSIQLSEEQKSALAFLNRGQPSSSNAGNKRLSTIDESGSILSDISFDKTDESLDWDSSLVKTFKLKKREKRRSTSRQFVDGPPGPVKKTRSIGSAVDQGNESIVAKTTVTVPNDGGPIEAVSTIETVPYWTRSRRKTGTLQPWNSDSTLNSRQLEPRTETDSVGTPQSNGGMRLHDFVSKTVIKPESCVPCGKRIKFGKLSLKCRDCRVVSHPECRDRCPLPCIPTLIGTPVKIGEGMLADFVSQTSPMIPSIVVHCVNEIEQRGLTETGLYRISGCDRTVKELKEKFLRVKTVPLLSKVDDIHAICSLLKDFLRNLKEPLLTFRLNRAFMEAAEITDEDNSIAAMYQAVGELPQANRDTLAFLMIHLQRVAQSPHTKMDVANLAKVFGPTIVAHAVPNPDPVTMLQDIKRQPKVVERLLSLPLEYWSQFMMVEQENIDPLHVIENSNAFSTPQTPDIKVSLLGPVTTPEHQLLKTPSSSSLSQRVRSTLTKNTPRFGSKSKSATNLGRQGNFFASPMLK

[8] = Luminescence Cell-Based Dose Confirmation HTS to Identify Inhibitors of Platelet Dense Granule Release. [Related pubchem assays: 1663 (Primary HTS), 1678 (Summary of Project)]; format: functional
[9] = ADP-Glo luciferase signal interference – biochemical, luminescence, cherry-picked samples, set 2, artefact control for CDK5 inhibitor project, dose response (AID 504546); format: functional, cell-based
[10] = blockers of HIV-1 envelope-mediated cell-cell fusion – cherry-pick, dose response (AID 652057); format: functional, cell-based
[11] = viability loss in CEM21 cells – cell-based, CellTiter-Glo luminescence, cherry-picked, cytotoxicity control for viral fusion inhibitor project, dose response (AID 652042); format: functional;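 further: potency for signal decrease meaning cytotoxicity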
[12] = blockers of HIV-1 ZM109 envelope-driven cell-cell fusion – HeLa effector, CEM target cells, luciferase, cherry-pick, dose response (AID 652058); format: functional, cell-based;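 further: luciferase signal from HIV-1 Env mediated cell-cell fusion of effector and target cells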
[13] = off-target signal loss in HeLa-CEM21 co-culture – HeLa F-luc CTL cells, cherry-picked, counter-screen for HIV-1 Env fusion inhibitor project, dose response (AID 652040); format: functional, cell-based;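 further: potency for signal decrease marking cytotoxic or nonspecific inhibition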
[14] = HIV-1 AD8 envelope cell-cell fusion blockers – cherry-pick, dose response (AID 652062); format: functional, cell-based;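 further: luciferase signal from cell-cell fusion driven by HIV-1 clade B AD8 Env; potency is for inhibitors of fusion seen as a drop in luminescence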
[15] = general cell-killing toxicity readout – plate reader, dry powder samples, cytotoxicity control for PAX8 inhibitor project, dose response (AID 743021); format: functional, cell-based
Cytochrome P450 2D6 = Cytochrome P450 2D6 (Homo sapiens, UniProt P10635); test: qHTS Assay for Inhibitors and Substrates of Cytochrome P450 2D6. [Related pubchem assays: 410 ]; format: ADME; details: read-out: Potency
Cytochrome P450 2C9 = Cytochrome P450 2C9 (Homo sapiens, UniProt P11712); details: Potency
[16] = target: T2, Alkaline phosphatase, tissue-nonspecific isozyme (Homo sapiens, UniProt P05186)
T2 sequence (P05186 whole entry): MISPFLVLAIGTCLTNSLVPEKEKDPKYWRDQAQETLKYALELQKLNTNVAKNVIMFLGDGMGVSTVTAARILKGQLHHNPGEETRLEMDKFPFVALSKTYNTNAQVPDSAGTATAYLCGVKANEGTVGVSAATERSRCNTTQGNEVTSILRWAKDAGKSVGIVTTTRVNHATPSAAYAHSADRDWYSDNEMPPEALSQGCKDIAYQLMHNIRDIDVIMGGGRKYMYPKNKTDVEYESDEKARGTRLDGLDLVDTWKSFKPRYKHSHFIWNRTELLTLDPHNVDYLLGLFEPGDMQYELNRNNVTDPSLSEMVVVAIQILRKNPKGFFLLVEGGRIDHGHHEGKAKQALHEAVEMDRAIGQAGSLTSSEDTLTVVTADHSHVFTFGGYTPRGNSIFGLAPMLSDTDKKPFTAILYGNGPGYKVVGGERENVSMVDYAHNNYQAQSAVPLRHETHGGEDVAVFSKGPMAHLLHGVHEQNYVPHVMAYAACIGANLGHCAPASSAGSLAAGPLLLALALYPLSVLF

[17] = target: T3, Eukaryotic translation initiation factor 2-alpha kinase 3 (Homo sapiens, UniProt Q9NZJ5); test: Dose response cell-based high-throughput screening assay to measure PERK inhibition. [Related pubchem assays: 1416 ]; format: functional
[18] = target: T3, Eukaryotic translation initiation factor 2-alpha kinase 3; test: Counterscreen assay for PERK inhibitors: Dose response cell-based high throughput screening assay to measure inhibition of PERK at 6 hours. [Related pubchem assays: 1522, 1416 ]; format: functional
[19] = HPDE-C7 pancreatic duct cell viability loss – fluorescence, HTS (AID 430); format: functional, cell-based; details: Homo sapiens
[20] = viability loss of HPDE-C7K cells – cell-based, fluorescence, HTS, primary screen (AID 431); format: functional; details: Homo sapiens
[21] = target: Neurotensin receptor type 1 (Homo sapiens, UniProt P30989); format: functional;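 further: Image-based confirmatory dose-response assay measuring agonist activity at NTR1; NTR1-expressing U2OS osteosarcoma cells imaged for beta-arrestin GFP spot formation; agonist potency where compounds increase beta-arrestin recruitment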
[22] = target: T4, Voltage-gated N-type calcium channel alpha-1B subunit/Amyloid beta A4 precursor protein-binding family A member 1 (Homo sapiens, UniProt Q00975+Q02410); test: disruptors of Mint-PDZ/N-type channel peptide interaction – biochemical, HTRF, set 2, SAR follow-up (AID 434980); format: functional
[23] = target: T4, Voltage-gated N-type calcium channel alpha-1B subunit/Amyloid beta A4 precursor protein-binding family A member 1; test: disruptors of Mint-PDZ/N-type channel peptide interaction – biochemical, HTRF, SAR follow-up (AID 2489); format: functional
[24] = target: Eukaryotic translation initiation factor 4H (Homo sapiens, UniProt Q15056); test: eIF4H binding inhibition – biochemical, uHTS, fluorescence polarization, translation initiation inhibitor project, primary screen (AID 2012)
[25] = target: Polyadenylate-binding protein 1 (Homo sapiens, UniProt P11940); test: blockers of PABP interaction with poly(A) – biochemical, fluorescence polarization, […] (AID 2014)
[26] = test system: Streptococcus sp. 'group A'; test: Streptococcus pyogenes SK(-)GAS viability under kanamycin – luminescence, BacTiterGlo, confirmation, counter-screen for streptokinase expression inhibitor project, dose response (AID 1900); format: functional, organism-based
[27] = target: Transitional endoplasmic reticulum ATPase (Homo sapiens, UniProt P55072, C522A); test: C522A mutant p97 ATPase inhibitors, dose response, counter-screen for p97 inhibitor project, biochemical, luminescence (AID 1544)
Streptokinase A = target: T5, Streptokinase A (Streptococcus pyogenes serotype M1, UniProt P10520); test: viability-normalized secreted streptokinase activity reduction – plasminogen activation absorbance, OD405, dose response (AID 1914); format: functional, Streptococcus pyogenes M1 GAS;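 further: secreted streptokinase activity via plasminogen activation per viability signal from cell pellet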
T5 sequence (P10520 whole entry): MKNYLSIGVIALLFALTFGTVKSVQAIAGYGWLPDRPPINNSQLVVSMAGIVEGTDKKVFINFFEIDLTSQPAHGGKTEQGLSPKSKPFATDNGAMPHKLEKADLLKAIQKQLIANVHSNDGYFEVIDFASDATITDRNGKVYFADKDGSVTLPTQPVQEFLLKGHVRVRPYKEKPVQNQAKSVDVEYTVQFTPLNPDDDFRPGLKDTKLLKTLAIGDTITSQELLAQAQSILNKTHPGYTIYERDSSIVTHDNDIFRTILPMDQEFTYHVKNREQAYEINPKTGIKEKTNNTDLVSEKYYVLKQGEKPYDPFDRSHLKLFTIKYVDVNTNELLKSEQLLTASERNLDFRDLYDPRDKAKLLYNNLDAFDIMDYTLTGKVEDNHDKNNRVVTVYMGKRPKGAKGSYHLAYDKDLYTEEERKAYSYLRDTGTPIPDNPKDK

[28] = target: Transitional endoplasmic reticulum ATPase (Homo sapiens, UniProt P55072); test: p97 ATPase inhibitors, dose response, biochemical (AID 1534)
Streptococcus = test: GAS UMAA2166 growth inhibition – luminescence, BacTiterGlo, counter-screen for streptokinase expression inhibitor project, dose response (AID 1915); format: functional, organism-based;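 further: potency for reduction of bacterial viability or growth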
[29] = target: FAD-linked sulfhydryl oxidase ALR (Homo sapiens, UniProt P55789); test: ALR-catalysed DTT oxidation blockers – biochemical, H2O2 detection, luminescence, cherry-pick, dose response (AID 493248)
[30] = IC50 of Artemis nuclease activity blockers – biochemical, fluorescence intensity, dose response (AID 720701); format: functional;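 further: Artemis endonuclease enzyme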
[31] = target: Serine/threonine-protein phosphatase PP1-alpha catalytic subunit (Homo sapiens, UniProt P62136); test: inhibition of protein phosphatase 1 activity – biochemical, fluorescence, dose response (AID 2403);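 further: phosphatase turnover of OMFP into fluorescent 3-O-methylfluorescein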
[32] = Trypanosoma cruzi growth suppression in host cells – NIH3T3 host cells, beta-gal luminescence, confirmation (AID 2044); format: functional, cell-based;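 further: intracellular parasites grown in NIH/3T3 mouse fibroblasts as host cells; luminescent beta-galactosidase reporter signal from transgenic T. cruzi replicating inside host cells; inhibitors lower the luminescence signal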
[33] = target: Serine/threonine-protein phosphatase (Homo sapiens, UniProt Q9BPW0); test: Counterscreen for inhibitors of PP1: fluorescence-based biochemical high throughput dose response assay to identify inhibitors of Protein Phosphatase 5 (PP5). [Related pubchem assays: 2034 (Summary (PP5 inhibitors)), 1987 (PP5 inhibitors in singlate), 2235 (PP1 inhibitors in singlate)]
[34] = NIH3T3 cell viability loss – ATP luminescence, mouse fibroblasts, counter-screen, dose response (AID 2010); format: functional, cell-based;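 further: cells exposed to compound for about 90 hours before reading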
INS1 = test: INS-1E survival protection against cytokine death – cell-based, luminescence, retest, dose response (AID 449756); format: functional; details: Rattus norvegicus;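 further: cell death triggered by IL-1 beta plus TNF-alpha plus IFN-gamma mixture; protective hits raise ATP signal compared with cytokine alone wells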

T3 sequence (Q9NZJ5 whole entry): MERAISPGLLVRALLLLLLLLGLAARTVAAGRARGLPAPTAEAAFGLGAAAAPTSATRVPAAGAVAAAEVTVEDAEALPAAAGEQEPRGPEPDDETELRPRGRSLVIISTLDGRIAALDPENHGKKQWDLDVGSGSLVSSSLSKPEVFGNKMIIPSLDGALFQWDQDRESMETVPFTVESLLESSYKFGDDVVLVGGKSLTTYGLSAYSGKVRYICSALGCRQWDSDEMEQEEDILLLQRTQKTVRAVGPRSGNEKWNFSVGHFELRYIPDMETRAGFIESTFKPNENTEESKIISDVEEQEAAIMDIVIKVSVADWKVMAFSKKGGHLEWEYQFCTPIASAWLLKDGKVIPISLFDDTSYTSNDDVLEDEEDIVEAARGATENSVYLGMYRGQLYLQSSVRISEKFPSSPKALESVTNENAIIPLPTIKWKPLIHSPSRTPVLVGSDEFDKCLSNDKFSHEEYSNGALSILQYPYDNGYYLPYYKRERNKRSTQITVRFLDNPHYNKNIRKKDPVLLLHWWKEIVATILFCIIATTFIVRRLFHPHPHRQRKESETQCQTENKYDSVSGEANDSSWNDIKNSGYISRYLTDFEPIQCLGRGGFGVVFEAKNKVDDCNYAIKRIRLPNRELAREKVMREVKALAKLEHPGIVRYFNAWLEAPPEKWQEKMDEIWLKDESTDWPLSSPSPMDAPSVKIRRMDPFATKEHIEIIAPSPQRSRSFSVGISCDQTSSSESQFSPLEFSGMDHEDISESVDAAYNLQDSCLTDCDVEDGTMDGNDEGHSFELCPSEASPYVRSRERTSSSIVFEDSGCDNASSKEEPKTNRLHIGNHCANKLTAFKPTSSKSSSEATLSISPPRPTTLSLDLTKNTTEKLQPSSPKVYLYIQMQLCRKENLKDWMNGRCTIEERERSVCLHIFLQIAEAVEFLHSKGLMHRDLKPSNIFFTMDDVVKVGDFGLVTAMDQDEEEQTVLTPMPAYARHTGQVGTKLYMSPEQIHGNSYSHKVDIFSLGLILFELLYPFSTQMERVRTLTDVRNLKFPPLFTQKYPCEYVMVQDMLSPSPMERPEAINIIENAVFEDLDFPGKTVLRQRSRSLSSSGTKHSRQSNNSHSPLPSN
Nonstructural protein 1, sequence (Q194T2 whole entry): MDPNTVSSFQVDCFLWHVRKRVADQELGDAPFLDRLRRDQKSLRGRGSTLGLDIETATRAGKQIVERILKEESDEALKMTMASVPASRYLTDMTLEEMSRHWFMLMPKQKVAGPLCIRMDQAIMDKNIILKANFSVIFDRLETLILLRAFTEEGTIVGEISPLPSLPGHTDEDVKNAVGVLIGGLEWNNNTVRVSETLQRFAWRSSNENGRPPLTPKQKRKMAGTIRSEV
T4 sequence (Q00975 whole entry): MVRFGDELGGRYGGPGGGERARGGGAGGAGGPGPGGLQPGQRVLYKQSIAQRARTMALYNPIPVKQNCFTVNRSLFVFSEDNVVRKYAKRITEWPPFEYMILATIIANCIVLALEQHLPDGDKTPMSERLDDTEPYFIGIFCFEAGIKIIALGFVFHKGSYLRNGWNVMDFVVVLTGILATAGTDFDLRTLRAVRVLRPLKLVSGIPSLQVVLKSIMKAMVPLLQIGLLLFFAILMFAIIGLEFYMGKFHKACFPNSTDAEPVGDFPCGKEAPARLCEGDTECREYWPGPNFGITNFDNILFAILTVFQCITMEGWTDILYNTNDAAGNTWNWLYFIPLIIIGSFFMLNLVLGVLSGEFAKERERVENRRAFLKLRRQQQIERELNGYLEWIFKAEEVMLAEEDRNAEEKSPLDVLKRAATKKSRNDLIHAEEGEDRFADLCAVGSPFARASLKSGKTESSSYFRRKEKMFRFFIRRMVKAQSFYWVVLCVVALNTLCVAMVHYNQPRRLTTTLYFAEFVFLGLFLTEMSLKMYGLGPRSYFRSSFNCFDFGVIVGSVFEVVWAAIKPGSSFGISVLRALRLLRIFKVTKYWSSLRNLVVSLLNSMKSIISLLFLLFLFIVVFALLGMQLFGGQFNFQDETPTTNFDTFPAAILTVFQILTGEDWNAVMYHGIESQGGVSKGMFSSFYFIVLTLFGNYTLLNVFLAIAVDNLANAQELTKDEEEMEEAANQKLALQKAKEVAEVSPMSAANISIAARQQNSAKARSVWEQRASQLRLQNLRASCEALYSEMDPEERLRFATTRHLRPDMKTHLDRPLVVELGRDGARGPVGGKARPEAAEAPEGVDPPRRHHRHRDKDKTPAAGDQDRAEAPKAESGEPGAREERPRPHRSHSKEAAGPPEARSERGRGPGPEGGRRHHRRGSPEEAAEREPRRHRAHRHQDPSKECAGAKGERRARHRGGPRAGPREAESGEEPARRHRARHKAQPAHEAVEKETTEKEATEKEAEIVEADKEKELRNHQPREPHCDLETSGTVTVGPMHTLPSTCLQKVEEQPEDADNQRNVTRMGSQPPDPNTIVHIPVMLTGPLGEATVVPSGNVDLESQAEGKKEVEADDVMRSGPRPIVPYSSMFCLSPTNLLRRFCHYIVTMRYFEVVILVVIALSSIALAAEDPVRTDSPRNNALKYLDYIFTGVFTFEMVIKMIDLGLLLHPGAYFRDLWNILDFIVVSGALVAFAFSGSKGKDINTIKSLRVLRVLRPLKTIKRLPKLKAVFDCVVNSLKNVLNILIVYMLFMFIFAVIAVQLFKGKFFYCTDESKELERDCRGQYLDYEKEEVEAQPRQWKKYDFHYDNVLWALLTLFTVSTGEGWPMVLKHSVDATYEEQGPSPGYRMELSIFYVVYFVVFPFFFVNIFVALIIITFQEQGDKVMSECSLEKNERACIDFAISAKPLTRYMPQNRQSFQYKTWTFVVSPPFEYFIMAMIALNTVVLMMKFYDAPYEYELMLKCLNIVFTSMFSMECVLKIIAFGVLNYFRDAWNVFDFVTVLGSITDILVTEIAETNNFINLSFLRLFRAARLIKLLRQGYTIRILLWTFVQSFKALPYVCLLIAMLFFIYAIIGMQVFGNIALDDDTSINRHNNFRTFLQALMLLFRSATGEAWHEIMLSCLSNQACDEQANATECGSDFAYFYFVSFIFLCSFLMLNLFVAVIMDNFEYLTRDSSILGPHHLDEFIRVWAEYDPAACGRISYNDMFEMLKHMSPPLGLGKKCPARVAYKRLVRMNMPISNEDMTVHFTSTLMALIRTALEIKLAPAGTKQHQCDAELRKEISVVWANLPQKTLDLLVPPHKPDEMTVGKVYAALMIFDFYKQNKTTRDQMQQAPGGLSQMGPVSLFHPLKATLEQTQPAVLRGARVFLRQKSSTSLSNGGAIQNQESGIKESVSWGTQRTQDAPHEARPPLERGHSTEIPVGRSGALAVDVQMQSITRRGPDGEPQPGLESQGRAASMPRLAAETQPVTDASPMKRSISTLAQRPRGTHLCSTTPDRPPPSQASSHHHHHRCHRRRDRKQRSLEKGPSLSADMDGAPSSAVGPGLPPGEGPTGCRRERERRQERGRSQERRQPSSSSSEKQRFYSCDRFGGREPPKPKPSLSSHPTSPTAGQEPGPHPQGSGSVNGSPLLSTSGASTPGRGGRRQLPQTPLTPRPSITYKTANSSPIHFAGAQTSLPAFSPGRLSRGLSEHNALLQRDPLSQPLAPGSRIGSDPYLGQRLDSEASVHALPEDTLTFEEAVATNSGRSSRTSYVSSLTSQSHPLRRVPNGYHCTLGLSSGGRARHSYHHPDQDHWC
T4 sequence (Q02410 whole entry): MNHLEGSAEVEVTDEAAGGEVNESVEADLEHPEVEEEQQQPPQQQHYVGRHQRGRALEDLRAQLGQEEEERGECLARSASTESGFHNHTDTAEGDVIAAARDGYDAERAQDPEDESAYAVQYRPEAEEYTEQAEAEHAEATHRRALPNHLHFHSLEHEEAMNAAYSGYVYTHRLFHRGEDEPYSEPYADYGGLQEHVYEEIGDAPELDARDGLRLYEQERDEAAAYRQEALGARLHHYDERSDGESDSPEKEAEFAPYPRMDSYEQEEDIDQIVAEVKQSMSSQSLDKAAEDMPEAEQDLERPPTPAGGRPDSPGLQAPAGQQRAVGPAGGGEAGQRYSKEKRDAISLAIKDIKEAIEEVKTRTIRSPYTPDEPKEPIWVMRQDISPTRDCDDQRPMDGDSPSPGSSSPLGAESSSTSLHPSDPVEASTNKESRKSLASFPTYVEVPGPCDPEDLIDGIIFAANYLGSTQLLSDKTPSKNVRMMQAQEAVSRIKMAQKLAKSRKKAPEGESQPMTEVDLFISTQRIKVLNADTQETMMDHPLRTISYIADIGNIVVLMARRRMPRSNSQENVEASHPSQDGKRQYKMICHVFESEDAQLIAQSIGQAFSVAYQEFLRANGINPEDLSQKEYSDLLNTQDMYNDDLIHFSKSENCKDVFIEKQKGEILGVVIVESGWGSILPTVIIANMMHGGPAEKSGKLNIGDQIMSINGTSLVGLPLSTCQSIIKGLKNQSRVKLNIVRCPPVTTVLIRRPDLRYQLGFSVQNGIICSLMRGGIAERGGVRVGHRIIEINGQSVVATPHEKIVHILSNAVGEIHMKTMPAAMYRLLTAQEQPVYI
Cytochrome P450 2C9, sequence (P11712 whole entry): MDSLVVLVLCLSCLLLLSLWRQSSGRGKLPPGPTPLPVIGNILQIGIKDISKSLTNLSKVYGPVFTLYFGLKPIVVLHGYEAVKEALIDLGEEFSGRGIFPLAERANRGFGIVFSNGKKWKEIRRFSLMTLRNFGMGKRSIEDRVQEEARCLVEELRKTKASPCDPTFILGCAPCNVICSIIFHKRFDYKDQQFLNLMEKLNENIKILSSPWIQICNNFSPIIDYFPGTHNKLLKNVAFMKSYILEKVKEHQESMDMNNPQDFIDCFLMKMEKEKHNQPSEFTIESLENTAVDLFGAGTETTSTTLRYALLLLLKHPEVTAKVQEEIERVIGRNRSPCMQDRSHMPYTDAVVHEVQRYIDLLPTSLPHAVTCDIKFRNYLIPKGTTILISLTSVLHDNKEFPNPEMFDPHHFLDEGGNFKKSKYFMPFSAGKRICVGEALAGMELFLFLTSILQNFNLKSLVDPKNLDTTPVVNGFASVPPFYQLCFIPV

COC(=O)CN(n1cnnc1)S(=O)(=O)c1ccccc1
IC50 (Aspartyl aminopeptidase): 0.497 µM (active) | IC50 (Procathepsin L): > 59.6 µM (not active)

CCOC(=O)C1(Cc2ccc(O)cc2)NC(c2ccccc2F)C2C(=O)N(C)C(=O)C21 (stereo not drawn)
EC50 [1]: > 50 µM (not active)

Cc1cc(C)nc(N(C#N)Cc2cccc([N+](=O)[O-])c2)n1
AC50 [2]: 4.72 µM (active)

CN(C)c1ccc(C=c2c3cc(O)ccc3n3c2cc(-c2ccccc2)[n+]3C)cc1
IC50 [3]: > 80 µM (inactive) | AC50 [4]: 44.6 µM (active) | IC50 (Nonstructural protein 1): 3.76 µM (active) | EC50 [5]: > 104 µM (inactive) | CC50 [6]: 50.7 µM (active) | IC50 [7]: 20.1 µM (active)

COc1ccc(C(=O)O/N=C(\N)c2ccccn2)cc1
EC50 [8]: 0.962 µM (active) | AC50 [9]: 19.8 µM (active) | AC50 [10]: 2.26 µM (active) | AC50 [11]: 21.6 µM (active) | AC50 [12]: 19.4 µM (active) | AC50 [13]: 7.65 µM (active) | AC50 [14]: 11.9 µM (active) | AC50 [15]: 30 µM (active)

Clc1nc(NCCc2ccccc2)c2ncn(-c3ccccc3)c2n1
AC50 (Cytochrome P450 2D6): 3.98 µM (inconclusive) | AC50 (Cytochrome P450 2C9): 7.94 µM (inconclusive)

COc1ccccc1CNC(=O)C1(NC(=O)Nc2ccc(C)cc2)CCCCC1
EC50 [16]: 37.3 µM (active)

Cc1nsc(N)c1C(=O)O
EC50 [17]: > 55.7 µM (not active) | EC50 [18]: > 55.7 µM (not active)

Cc1sc(NC(=O)c2ccco2)nc1-c1ccc2c(c1)CC(C)N2C(=O)C1CC1 (stereo not drawn)
EC50 [19]: 7.02 µM (active) | EC50 [20]: 7.22 µM (active) | EC50 [21]: 30.2 µM (inactive)

COc1ccccc1CCNC(=O)c1cc(-c2ccco2)nc2ccccc12
IC50 [22]: 25.8 µM (active) | IC50 [23]: > 56.8 µM (inactive)

COC(=O)c1c(NC(=O)/C=C/c2ccco2)sc2c1CCC2
IC50 [24]: 50.4 µM (active) | IC50 [25]: > 100 µM (inactive)

O=C(NNc1c2ccccc2nc2ccccc12)c1ccc(O)cc1O
EC50 [26]: 2.59 µM (active) | IC50 [27]: > 50 µM (not active) | EC50 (Streptokinase A): > 150 µM (not active) | IC50 [28]: > 50 µM (not active) | EC50 (Streptococcus): 23.7 µM (active) | IC50 (Nonstructural protein 1): 32.1 µM (active) | AC50 [29]: 0.062 µM (active) | IC50 [30]: 13.3 µM (active)

COc1ccc(Sc2nc(-c3ccccn3)ncc2OC)cc1
IC50 [31]: 6.04 µM (active) | EC50 [32]: 1.9 µM (active) | IC50 [33]: > 67 µM (not active) | EC50 [34]: > 60 µM (inconclusive) | AC50 (INS1): 5.13 µM (active)

Reference: ChEMBL document CHEMBL1201862, “PubChem BioAssay data set” (2004)
